From paper PMC8878317, “Chemogenomics identifies acetyl-coenzyme A synthetase as a target for malaria treatment and prevention” (Cell Chemical Biology, 2022)

What was measured:
PfAcAS T648M = target: T1, PfAcAS T648M (Plasmodium falciparum, UniProt C6KTB4, T648M); assay: EnzChek assay, recombinant PfAcAS T648M; format: biochemical, P. falciparum; settings: substrate varied, other two saturating
T1 sequence (C6KTB4 1-997 T648M): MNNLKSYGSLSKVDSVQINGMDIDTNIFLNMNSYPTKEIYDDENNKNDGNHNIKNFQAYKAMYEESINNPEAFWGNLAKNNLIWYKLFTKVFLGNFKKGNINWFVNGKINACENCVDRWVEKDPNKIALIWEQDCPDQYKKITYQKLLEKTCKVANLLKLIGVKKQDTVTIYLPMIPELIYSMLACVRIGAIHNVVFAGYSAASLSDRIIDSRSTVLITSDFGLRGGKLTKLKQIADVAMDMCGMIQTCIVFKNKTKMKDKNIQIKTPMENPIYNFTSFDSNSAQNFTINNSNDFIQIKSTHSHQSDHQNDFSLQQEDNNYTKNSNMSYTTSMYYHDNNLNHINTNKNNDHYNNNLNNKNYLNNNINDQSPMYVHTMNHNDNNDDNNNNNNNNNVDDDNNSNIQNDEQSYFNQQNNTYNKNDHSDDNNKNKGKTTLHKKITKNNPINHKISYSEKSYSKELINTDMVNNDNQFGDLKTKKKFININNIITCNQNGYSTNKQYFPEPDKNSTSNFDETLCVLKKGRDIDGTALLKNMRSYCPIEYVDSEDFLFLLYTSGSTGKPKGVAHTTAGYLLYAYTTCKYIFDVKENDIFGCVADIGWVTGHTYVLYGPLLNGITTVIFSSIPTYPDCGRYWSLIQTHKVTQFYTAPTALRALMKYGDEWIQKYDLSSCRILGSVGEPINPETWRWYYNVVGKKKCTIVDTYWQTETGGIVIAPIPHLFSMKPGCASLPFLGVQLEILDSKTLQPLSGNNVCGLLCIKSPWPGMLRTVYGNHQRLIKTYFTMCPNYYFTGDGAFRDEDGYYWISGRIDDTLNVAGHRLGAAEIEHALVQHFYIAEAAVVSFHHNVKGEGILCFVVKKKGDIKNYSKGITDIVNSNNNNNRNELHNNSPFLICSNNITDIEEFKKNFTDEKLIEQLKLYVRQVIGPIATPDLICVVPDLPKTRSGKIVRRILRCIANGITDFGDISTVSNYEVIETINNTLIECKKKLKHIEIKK
Experimental: (§1) Steady-state kinetic measurements were conducted at room temperature using a PheraStar plate reader (BMG). The first step of the reaction of PfAcAS, which produces inorganic pyrophosphate (PPi) that is converted to two molecules of inorganic phosphate using a pyrophosphatase enzyme, was continuously monitored using the EnzChek Phosphate Assay Kit, which gives an absorbance readout at 360 nm (Figure 4A) ([Webb, 1992]). […] By adding CoA, the reaction rapidly proceeds to the second step resulting in further release of pyrophosphate, making the EnzChek assay a suitable option to continuously monitor the activity of PfAcAS. Typical kinetic assays were carried out in clear, flat-bottom, polystyrene, 384-well plates (Greiner) in an 80 μL reaction volume containing 100 mM HEPES (pH7.4), 100 mM NaCl, 250 mM KCl, 50 mM MgCl2, 1 mM DTT, 0.004% Tween 20, 0.5 U/mL pyrophosphatase, 0.1 mM MESG, 0.5 U/mL PNP, 2 mM ATP, 2 mM acetate, 0.5 mM CoA and 5 nM recombinant PfAcAS WT or 10 nM recombinant PfAcAS A597V or T648M. Assays were performed by adding 40 μL of a 2-times concentrated substrate mixture including MESG to all wells, and the reactions started by adding 40 μL of a 2-times concentrated reaction mixture containing all other components. The reactions were carried out for 2 to 4 hr with absorbance readings at 360 nm every two to four minutes. Reaction rates were extracted from the linear phase of activity, usually using 10 to 20 points between times of 30 and 100 min of the reactions. Using a phosphate standard curve obtained under the same buffer conditions used for the PfAcAS reactions (Figure S5A), the rates were then converted to velocity per second, conversion of one nanomolar of phosphate, per nanomolar of enzyme, per second. The substrates Km values were determined by varying the concentration of one of the substrates at saturating concentration of the other two substrates. Steady-state data were fitted using the nonlinear, least-squares, curve-fitting programs of Sigma-Plot for Windows, version 14.0. Individual saturation curves were fit to Equation 1(Equation 1) v=VS/K+S where V is the maximal velocity, S is the substrate concentration and K is the Michaelis constant for the substrate (Km). Individual saturation curves displaying substrate inhibition were fit to Equation 2(Equation 2) v=VS/K+S×(1+S/Ks) where Ks is the substrate inhibition constant.
(§2) To determine the steady-state inhibition parameters and patterns associated with both inhibitors, PfAcAS activity was studied in the presence of variable concentrations of one substrate, ATP, acetate or CoA, fixed saturating concentration of the other two substrates (acetate and CoA, ATP and CoA, or ATP and acetate) and several fixed concentrations of inhibitor. Assay ready plates containing different concentrations of inhibitor were prepared using an Echo 550 acoustic dispenser (Labcyte Inc.). The assays were carried out as described in the previous section. […] For better comparison between both inhibitors and proteins, the ymin was fixed to zero and the ymax to 100. Inhibition data showing linear, competitive patterns in double-reciprocal plots were fit to Equation 4(Equation 4) v=VS/K(1+I/Ki)+S where Ki is the dissociation constant for the enzyme-inhibitor complex. Inhibition data showing linear, mixed inhibition patterns in double-reciprocal plots were fit to Equation 5(Equation 5) v=VS/K(1+I/Kis)+S(1+I/Kii) where Kis is the dissociation constant for the free enzyme-inhibitor complex and Kii is the dissociation constant for the enzyme-substrate-inhibitor complex. Inhibition data showing linear, uncompetitive patterns in double-reciprocal plots were fit to Equation 6(Equation 6) v=VS/K+S(1+I/Ki)

PfAcAS A597V = target: T2, PfAcAS A597V (Plasmodium falciparum, UniProt C6KTB4, A597V); assay: EnzChek assay, recombinant PfAcAS A597V; format: biochemical, P. falciparum; settings: substrate varied, other two saturating
T2 sequence (C6KTB4 1-997 A597V): T1 sequence (C6KTB4 1-997 T648M)
Experimental: as §1, §2

PfAcAS WT = PfAcAS WT (Plasmodium falciparum, UniProt C6KTB4); assay: EnzChek assay, recombinant PfAcAS WT (steady-state kinetics and IC50); format: biochemical, P. falciparum; settings: substrate varied, other two saturating
Experimental: as §1, §2

[1] = tested on: P. falciparum 3D7 parasites; assay: Metabolomic profiling of compound-treated parasites (LC/MS); format: cell-based; set-up: Metabolite data: dTMP / Metabolite data: GMP / Metabolite data: S-Adenosyl-L-Homocysteine / Metabolite data: 1_3-Bisphosphoglyceric acid: scale not given here;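 for Metabolite data: 3-Phosphoglycerate: Log2 fold change in abundance versus untreated parasite controls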;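 for Metabolite data: Myo-Inositol: Log2 fold change in abundance versus untreated parasite controls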;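 for Metabolite data: N-Carbamoyl-L-Aspartate: Log2 fold change in abundance versus untreated parasite controls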;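 for Metabolite data: Nicotinate: Log2 fold change in abundance versus untreated parasite controls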
Procedure, shortened: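 Magnetically purified trophozoites (1×10^8 parasites/mL) recovered 1 h in RPMI 1640, incubated a further 2.5 h, quenched in 90% methanol with labeled aspartate. Extracts analysed by reverse-phase C18 LC with negative-mode Orbitrap MS; peak areas normalized to internal standards, blank-subtracted and averaged by condition.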

SMILES: Nc1ncnc2c1ncn2[C@@H]1O[C@H](COP(=O)(O)OP(=O)(O)OP(=O)(O)O)[C@@H](O)[C@H]1O [ATP]
- Km (PfAcAS T648M): 400 ± 17 µM
- Vmax (s-1), PfAcAS T648M (PfAcAS T648M): 1.9 ± 0.03 s⁻¹
- Km (PfAcAS A597V): 140 ± 5 µM
- Vmax (s-1), PfAcAS A597V (PfAcAS A597V): 0.54 ± 0.01 s⁻¹
- Km (PfAcAS WT): 93 µM
- Vmax (s-1), PfAcAS WT (PfAcAS WT): 2.4 ± 0.03 s⁻¹

SMILES: O=C(NNC(=O)c1csnn1)c1ccc(Cl)cc1 [MMV084978-1]
- Metabolite data: 1_3-Bisphosphoglyceric acid [1]: 0.1496
- Metabolite data: 2_3-Diphosphoglyceric acid [1]: 0.1496
- Metabolite data: 3-Phosphoglycerate [1]: 0.2498
- Metabolite data: 4-Aminobutyrate [1]: -0.07219
- Metabolite data: 4-Phosphopantothenate [1]: -0.08759
- Metabolite data: 4-phosphopantetheine [1]: -0.1079
- Metabolite data: 5-aminopentanoic acid [1]: 0
- Metabolite data: 5-phosphoribosyl-1-pyrophosphate [1]: 0
- Metabolite data: 6-Phospho-D-Gluconate [1]: -0.01315
- Metabolite data: ADP-D-Glucose [1]: 0.08201
- Metabolite data: Acetyl-CoA [1]: -3.327
- Metabolite data: Acetyllysine [1]: -0.5311
- Metabolite data: Aconitate [1]: -0.1935
- Metabolite data: CDP [1]: 1.05
- Metabolite data: CDP-Ethanolamine [1]: 0.1123
- Metabolite data: CDP-choline [1]: -0.1263
- Metabolite data: CMP [1]: 1.555
- Metabolite data: CTP [1]: 0.5959
- Metabolite data: Citrate/Isocitrate [1]: -0.25
- Metabolite data: Cyclic-AMP [1]: -0.2917
- Metabolite data: Dihydroorotate [1]: -1.467
- Metabolite data: FAD [1]: 0.02838
- Metabolite data: FMN [1]: 0.1073
- Metabolite data: Fructose-1,6-Bisphosphate [1]: -0.1507
- Metabolite data: Fumarate [1]: -0.2504
- Metabolite data: GDP [1]: 0.1753
- Metabolite data: GMP [1]: 0.5608
- Metabolite data: GTP [1]: 0.3192
- Metabolite data: Glucose-1/6-Phosphate [1]: 0
- Metabolite data: Glutathione Disulfide [1]: -0.0421
- Metabolite data: Hexose [1]: 0.4607
- Metabolite data: Hydroxyisocaproic acid [1]: 0
- Metabolite data: Indole [1]: -0.02938
- Metabolite data: Ketoleucine [1]: 0
- Metabolite data: L-arginino-succinate [1]: -0.1583
- Metabolite data: Lactate [1]: -0.4518
- Metabolite data: Malate [1]: -0.3092
- Metabolite data: Myo-Inositol [1]: -0.662
- Metabolite data: N-Acetyl-Glutamate [1]: -1.234
- Metabolite data: N-Acetyl-L-Alanine [1]: -0.1942
- Metabolite data: N-Acetyl-L-Ornithine [1]: -0.6079
- Metabolite data: N-Carbamoyl-L-Aspartate [1]: -1.86
- Metabolite data: NAD+ [1]: -0.05754
- Metabolite data: NADH [1]: -0.03997
- Metabolite data: NADP+ [1]: -0.01332
- Metabolite data: NADPH [1]: -0.02772
- Metabolite data: Nicotinate [1]: -0.2079
- Metabolite data: Octulose 8/1-Phosphate [1]: 0.04337
- Metabolite data: Orotate [1]: -1.48
- Metabolite data: PD [1]: -0.5076
- Metabolite data: PE [1]: -0.5728
- Metabolite data: PEEK [1]: -0.4082
- Metabolite data: Phenol Red [1]: -0.09162
- Metabolite data: Pyroglutamic acid [1]: -0.04117
- Metabolite data: S-Adenosyl-L-Homocysteine [1]: -0.1413
- Metabolite data: S-methyl-5'-thioadenosine [1]: -0.2314
- Metabolite data: SD [1]: -0.5901
- Metabolite data: Sedoheptulose Bisphosphate [1]: -0.08586
- Metabolite data: UDP [1]: 0.6291
- Metabolite data: UDP-D-Glucose [1]: 0.0869
- Metabolite data: UDP-D-Glucuronate [1]: 0.1009
- Metabolite data: UDP-N-Acetyl-Glucosamine [1]: -0.1998
- Metabolite data: UMP [1]: 1.083
- Metabolite data: UTP [1]: 0.2924
- Metabolite data: a-ketoglutarate [1]: -0.2708
- Metabolite data: acetyl-aspartate [1]: -0.01834
- Metabolite data: arginine [1]: 0.1881
- Metabolite data: asparagine [1]: 0.1209
- Metabolite data: aspartate [1]: 0.4643
- Metabolite data: biotin [1]: -0.04446
- Metabolite data: chlorpropamide [1]: -1.60E-16
- Metabolite data: coenzyme A [1]: -0.006892
- Metabolite data: dAMP [1]: 0.6117
- Metabolite data: dATP [1]: 0.1596
- Metabolite data: dCDP [1]: -0.02418
- Metabolite data: dCMP [1]: 0.3076
- Metabolite data: dCTP [1]: 0.1432
- Metabolite data: dGDP/ADP [1]: -0.04263
- Metabolite data: dGMP/AMP [1]: -0.1821
- Metabolite data: dGTP/ATP [1]: 0.1752
- Metabolite data: dTDP [1]: 0.5413
- Metabolite data: dTMP [1]: 0.4313
- Metabolite data: dTTP [1]: 0.1959
- Metabolite data: folate [1]: -0.04496
- Metabolite data: glucono-lactone [1]: -0.03642
- Metabolite data: glutamate [1]: -0.04994
- Metabolite data: glutamine [1]: 0.01906
- Metabolite data: glutathione [1]: -0.07032
- Metabolite data: histidine [1]: -0.03336
- Metabolite data: hydroxyproline/Aminolevulinate [1]: -0.01874
- Metabolite data: isoleucine [1]: 0.003243
- Metabolite data: leucine [1]: -0.0173
- Metabolite data: maleic acid [1]: -0.282
- Metabolite data: methionine [1]: 0.1423
- Metabolite data: nicotinamide mononucleotide [1]: -0.4705
- Metabolite data: orotidine-5'-phosphate [1]: -2.397
